Read-outs that look alike come from different tables or passages of the source. One block for each compound: values may come before it.
Experiments:
[1] = test system: TRK Fusion-Positive Cancers; details: cited from earlier work
[2] = Metabolic stability in liver microsomes; assay type: in vitro ADME; details: pH 7.4; for half-life at 1 µM: read-out: T½
From the text: According to standard methods conventional in the art for in vitro metabolic stability studies, for example those protocols described in Kems, Edward H. and Di Li (2008). Drug-like Properties: Concepts. Structure Design and Methods: from ADME to Toxicity Optimization. San Diego: Academic Press; Di, Li et al., Optimization of a Higher Throughput Microsomal Stability Screening Assay for Profiling Drug Discovery Candidates, J. Biomol. Screen. 2003, 8(4), 453., the metabolic stability test in liver microsomes of the present compound was performed analogously as follows.
The in vitro metabolic stability of the compound in 5 species (mouse, rat, dog, monkey, and human) was evaluated by liver microsomal stability test. 0.1M potassium phosphate buffer solution (pH 7.4, containing 1.0 mM EDTA) was prepared. The test compound and the control compound were prepared into a 10 mM DMSO solution, and then 10 μL of the 10 mM DMSO compound solution was added to 190 μL of acetonitrile to prepare a 500 μM compound solution. Liver microsomes (Sekisui XenoTech, LLC., human liver microsomes, cat. #H0610; Beagle dog liver microsomes, cat. #D1000; cynomolgus monkey liver microsomes, cat. #P2073; rat liver microsomes, cat. #R1073; mouse Liver microsomes, cat. #M1000) were taken and slowly melted on ice, then 18.75 μL of the liver microsome solution (20 mg/mL) and 1.5 μL of 500 μM compound solution were added to 479.75 μL of 0.1M potassium phosphate buffer solution to prepare a 0.75 mg/mL liver microsome working solution with a concentration of 1.5 μM compound. 6 mM NADPH (SIGMA, cat. #V900362) aqueous solution was prepared. 0.2 mL 2 mg/mL internal standard stock solution (imipramine solution in acetonitrile) was added to 1000 mL acetonitrile (SIGMA, cat. #271004) to prepare the reaction stop solution and stored at 4° C.
Six deep-well plates were labeled as T0, T5, T15, T30, T45 and NCF60 (negative control, without NADPH). 30 μL of […] control compound or test compound solution in 0.75 mg/mL liver microsome working solution was added to each well of the corresponding plates. After being sealed with film, all the microplates were placed in a 37° C. water bath to preheat for 5 minutes, and 6 mM NADPH solution was placed in a 37° C. water bath to preheat for 5 minutes. Then 15 μL of NADPH solution was added to each cell successively in reverse time order, that is, first adding the T45 plate, 15 minutes later the T30 plate, 15 minutes later again the T15 plate, and 10 minutes later gain the T5 plate. NCF60 plate was not added with NADPH but 15 μL of deionized water. At this time, to the TO plate were added 135 μL of ice-cooled reaction stop solution and 15 μL of NADPH solution. By the end of the reaction, 135 μL of ice-precooled reaction stop solution was added successively to each well of the T5, T15, T30, and T45 plates. All samples were centrifuged at 4° C. at 600 rpm for 10 minutes, and then at 5594 g for 15 minutes (Thermo Multifugex 3R). Six 96-well plates were respectively labeled and added 50 μL of ultrapure water (Millipore, ZMQS50F01) to each well, then 50 μL of the centrifuged supernatant was added to the corresponding well of the corresponding plate, for LC-MS/MS-014 (API4000), UPLC-MS/MS-11 (API4000), LC-MS/MS-034 (API-6500+) analysis. The concentration (C0) of the test compound at TO time point was taken as 100%, and the concentrations at other incubation time points were converted into residue percentages.
The natural logarithm of the residue percentage at each time point was subjected to linearly regression as a factor of incubation time to obtain Slope k, and then the liver microsome clearance rate (CLint^mic) and in vitro half-life (T½) were calculated according to the following formula: […]

[3] = molecular target: RET (Homo sapiens (Human), UniProt P07949); experiment: KINOMEscan competition binding assay
Procedure: (§1) The experiment was performed according to the standard kinase activity determination protocol by Eurofins DiscoverX Corporation (11180 Roselle St. Suite D, San Diego, CA, USA, www.discoverX.com). Specifically, the experiment was conducted using the KINOMEscan™ screening platform, which adopts an active site-directed competition binding assay to quantitatively measure the interaction between test compounds and more than hundreds of human kinases and disease-related mutants. The working principle of the screening platform and kinase assay methods are well known in the art, for example, see www.discoverX.com.

[4] = molecular target: MET (Homo sapiens (Human), UniProt P08581); experiment: KINOMEscan competition binding assay
Procedure: as §1

[5] = molecular target: MKNK1 (Homo sapiens (Human), UniProt Q9BUB5); experiment: KINOMEscan competition binding assay
Procedure: as §1

[6] = molecular target: MERTK (Homo sapiens (Human), UniProt Q12866); experiment: KINOMEscan competition binding assay
Procedure: as §1

[7] = molecular target: CSF1R (Homo sapiens (Human), UniProt P07333); experiment: KINOMEscan competition binding assay
Procedure: as §1

[8] = molecular target: TRKC (Homo sapiens (Human), UniProt Q16288); experiment: KINOMEscan competition binding assay
Procedure: as §1

[9] = molecular target: LCK (Homo sapiens (Human), UniProt P06239); experiment: KINOMEscan competition binding assay
Procedure: as §1

[10] = molecular target: LOK (Homo sapiens (Human), UniProt O94804); experiment: KINOMEscan competition binding assay
Procedure: as §1

[11] = molecular target: PLK4 (Homo sapiens (Human), UniProt O00444); experiment: KINOMEscan competition binding assay
Procedure: as §1

[12] = molecular target: CDKL2 (Homo sapiens (Human), UniProt Q92772); experiment: KINOMEscan competition binding assay
Procedure: as §1

[13] = molecular target: EPHA8 (Homo sapiens (Human), UniProt P29322); experiment: KINOMEscan competition binding assay
Procedure: as §1

[14] = molecular target: DDR2 (Homo sapiens (Human), UniProt Q16832); experiment: KINOMEscan competition binding assay
Procedure: as §1

[15] = molecular target: FLT3(K663Q) (Homo sapiens (Human), UniProt P36888, K663Q); experiment: KINOMEscan competition binding assay
Procedure: as §1

Chain of TRKC (Q16288 32-839): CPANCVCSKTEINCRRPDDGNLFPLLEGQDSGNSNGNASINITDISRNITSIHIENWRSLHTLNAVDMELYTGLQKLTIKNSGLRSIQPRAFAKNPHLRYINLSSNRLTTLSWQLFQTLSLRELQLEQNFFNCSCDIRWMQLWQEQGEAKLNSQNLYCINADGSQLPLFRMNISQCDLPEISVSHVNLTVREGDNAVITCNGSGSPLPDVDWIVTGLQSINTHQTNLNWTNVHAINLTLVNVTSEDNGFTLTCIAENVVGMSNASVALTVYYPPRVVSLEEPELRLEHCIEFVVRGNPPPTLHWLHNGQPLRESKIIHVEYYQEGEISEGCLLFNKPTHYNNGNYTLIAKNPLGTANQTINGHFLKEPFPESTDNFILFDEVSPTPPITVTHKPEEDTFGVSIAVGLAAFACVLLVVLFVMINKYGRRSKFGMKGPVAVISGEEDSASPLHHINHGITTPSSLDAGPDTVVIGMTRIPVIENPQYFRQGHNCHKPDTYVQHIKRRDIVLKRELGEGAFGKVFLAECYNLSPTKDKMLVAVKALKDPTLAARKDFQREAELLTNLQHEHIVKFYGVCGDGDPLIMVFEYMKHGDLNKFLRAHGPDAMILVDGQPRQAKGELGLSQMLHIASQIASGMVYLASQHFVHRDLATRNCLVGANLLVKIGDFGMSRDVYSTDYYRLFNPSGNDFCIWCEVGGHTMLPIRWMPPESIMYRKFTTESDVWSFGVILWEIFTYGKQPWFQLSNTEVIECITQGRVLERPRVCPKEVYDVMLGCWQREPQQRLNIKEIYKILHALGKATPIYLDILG
Chain of MERTK (Q12866 21-999): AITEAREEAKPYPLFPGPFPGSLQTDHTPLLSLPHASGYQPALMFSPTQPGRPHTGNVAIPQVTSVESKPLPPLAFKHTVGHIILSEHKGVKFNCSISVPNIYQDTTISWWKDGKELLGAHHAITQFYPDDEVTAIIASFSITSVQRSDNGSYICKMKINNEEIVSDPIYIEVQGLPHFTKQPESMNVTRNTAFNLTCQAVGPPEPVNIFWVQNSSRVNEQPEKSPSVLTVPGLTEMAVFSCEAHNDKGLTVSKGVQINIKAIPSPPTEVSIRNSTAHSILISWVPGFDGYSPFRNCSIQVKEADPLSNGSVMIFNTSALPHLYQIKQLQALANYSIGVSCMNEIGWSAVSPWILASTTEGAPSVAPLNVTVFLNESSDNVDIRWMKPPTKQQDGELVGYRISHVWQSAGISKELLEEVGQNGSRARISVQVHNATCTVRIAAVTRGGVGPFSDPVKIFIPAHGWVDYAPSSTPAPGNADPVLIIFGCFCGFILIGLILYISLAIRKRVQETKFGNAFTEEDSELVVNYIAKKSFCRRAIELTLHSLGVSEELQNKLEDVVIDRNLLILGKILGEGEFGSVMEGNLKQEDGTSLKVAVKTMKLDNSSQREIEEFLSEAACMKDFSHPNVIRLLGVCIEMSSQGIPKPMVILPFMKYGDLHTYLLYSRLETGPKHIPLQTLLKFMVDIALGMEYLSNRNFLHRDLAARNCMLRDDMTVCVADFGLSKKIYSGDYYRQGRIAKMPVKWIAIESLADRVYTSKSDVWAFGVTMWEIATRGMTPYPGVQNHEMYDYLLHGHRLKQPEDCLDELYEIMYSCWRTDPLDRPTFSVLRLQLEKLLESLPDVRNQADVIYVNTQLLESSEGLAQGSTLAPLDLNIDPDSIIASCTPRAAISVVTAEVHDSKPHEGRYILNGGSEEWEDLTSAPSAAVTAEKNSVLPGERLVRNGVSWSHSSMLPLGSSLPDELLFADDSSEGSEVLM
Chain of RET (P07949 29-1114): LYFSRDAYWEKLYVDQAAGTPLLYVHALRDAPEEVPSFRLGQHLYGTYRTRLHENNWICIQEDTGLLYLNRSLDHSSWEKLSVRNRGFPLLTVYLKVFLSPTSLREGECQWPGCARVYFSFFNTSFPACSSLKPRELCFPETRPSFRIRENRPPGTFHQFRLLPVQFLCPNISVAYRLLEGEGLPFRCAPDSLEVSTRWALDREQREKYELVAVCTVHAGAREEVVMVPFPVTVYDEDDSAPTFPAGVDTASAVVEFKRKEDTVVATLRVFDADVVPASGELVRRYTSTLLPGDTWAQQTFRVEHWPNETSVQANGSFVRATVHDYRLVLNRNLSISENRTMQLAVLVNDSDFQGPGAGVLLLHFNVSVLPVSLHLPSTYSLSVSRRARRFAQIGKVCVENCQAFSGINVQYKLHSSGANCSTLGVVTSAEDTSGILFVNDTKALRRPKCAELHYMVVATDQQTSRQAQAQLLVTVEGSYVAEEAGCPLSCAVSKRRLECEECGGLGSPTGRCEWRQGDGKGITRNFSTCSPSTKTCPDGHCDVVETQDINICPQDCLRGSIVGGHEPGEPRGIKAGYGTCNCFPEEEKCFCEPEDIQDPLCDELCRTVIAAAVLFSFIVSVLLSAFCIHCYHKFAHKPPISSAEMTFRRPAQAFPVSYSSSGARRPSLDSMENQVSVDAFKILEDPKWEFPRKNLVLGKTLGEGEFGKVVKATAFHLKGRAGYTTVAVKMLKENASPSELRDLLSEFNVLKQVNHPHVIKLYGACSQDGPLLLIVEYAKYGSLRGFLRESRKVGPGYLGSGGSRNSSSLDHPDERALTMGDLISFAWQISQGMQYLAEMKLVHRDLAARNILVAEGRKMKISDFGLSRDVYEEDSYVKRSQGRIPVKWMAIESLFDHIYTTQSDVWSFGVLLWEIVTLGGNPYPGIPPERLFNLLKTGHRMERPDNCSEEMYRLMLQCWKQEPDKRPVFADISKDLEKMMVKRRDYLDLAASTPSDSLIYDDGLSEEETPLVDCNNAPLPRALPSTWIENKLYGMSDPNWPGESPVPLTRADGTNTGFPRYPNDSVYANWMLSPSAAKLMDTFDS
Chain of LCK (P06239 whole entry): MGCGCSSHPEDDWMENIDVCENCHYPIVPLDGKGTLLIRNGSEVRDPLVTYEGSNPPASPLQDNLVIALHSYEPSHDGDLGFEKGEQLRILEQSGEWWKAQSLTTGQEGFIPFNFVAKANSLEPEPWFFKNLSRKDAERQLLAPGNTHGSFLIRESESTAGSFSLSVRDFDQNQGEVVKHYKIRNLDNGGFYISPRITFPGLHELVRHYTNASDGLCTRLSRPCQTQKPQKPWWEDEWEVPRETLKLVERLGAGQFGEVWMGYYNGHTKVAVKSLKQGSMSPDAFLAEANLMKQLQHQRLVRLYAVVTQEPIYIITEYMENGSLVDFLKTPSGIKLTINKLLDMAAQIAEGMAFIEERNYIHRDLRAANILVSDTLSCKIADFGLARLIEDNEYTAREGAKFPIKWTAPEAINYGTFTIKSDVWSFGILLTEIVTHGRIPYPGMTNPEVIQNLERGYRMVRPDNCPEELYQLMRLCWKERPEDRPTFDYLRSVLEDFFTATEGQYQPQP
Chain of EPHA8 (P29322 28-1005): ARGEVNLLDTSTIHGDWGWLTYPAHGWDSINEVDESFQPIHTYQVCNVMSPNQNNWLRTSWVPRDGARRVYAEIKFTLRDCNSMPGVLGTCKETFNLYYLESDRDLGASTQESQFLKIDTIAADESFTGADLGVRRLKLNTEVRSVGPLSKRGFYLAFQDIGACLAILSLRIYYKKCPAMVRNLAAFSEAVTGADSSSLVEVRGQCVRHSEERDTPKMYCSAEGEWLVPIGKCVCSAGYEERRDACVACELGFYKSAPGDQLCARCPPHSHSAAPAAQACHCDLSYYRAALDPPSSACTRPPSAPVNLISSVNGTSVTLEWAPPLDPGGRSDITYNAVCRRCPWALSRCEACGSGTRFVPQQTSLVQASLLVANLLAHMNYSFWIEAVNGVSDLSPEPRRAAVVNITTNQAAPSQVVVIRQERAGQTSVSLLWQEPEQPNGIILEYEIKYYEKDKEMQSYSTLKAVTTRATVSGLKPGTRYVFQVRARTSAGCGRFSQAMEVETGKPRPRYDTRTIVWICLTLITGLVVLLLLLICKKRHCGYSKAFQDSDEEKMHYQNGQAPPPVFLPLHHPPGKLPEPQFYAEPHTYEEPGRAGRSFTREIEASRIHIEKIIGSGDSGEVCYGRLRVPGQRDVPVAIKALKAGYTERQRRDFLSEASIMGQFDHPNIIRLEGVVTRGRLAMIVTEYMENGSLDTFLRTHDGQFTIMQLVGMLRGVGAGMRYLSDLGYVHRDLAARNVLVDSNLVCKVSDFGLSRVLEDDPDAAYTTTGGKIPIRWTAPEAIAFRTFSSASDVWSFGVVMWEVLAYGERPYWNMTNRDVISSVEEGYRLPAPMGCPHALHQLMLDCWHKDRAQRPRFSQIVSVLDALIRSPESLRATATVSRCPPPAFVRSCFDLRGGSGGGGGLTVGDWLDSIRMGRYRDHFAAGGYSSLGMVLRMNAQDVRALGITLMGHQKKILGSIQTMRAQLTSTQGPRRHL
Chain of CDKL2 (Q92772 whole entry): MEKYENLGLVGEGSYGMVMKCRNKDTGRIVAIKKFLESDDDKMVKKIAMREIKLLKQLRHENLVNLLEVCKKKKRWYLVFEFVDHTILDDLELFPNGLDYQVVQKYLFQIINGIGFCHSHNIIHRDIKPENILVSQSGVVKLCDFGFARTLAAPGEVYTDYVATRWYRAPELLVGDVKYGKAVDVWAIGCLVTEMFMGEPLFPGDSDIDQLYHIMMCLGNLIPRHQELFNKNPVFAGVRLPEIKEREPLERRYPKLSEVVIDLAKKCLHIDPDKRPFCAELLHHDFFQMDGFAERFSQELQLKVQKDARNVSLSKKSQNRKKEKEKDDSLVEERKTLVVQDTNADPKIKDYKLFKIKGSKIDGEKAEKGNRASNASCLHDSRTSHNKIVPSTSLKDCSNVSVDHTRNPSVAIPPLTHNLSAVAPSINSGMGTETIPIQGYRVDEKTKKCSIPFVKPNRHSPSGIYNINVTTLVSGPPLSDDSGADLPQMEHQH

SMILES: O=C(Nc1cnn2ccc(N3CCC[C@@H]3c3cc(F)ccc3F)nc12)N1CC[C@H](O)C1 [LOXO-101, Larotrectinib, reference compound]
patients had no disease progression ([1]; after 1 year of treatment): 55%
patients still responded to treatment ([1]; after 1 year of treatment): 71%
overall patient response rate (ORR) ([1]; patients, more than ten tumor types): 75%
complete response ([1]; patients): 13%
partial response ([1]; patients): 62%

CLint scaled at 1 µM ([2]; Beagle, dog liver microsomes): 38.4 mL/min/kg
half-life at 1 µM ([2]; Beagle, dog liver microsomes): 1.5 h
CLint scaled at 1 µM ([2]; human liver microsomes): 22 mL/min/kg
half-life at 1 µM ([2]; human liver microsomes): 1.32 h
CLint scaled at 1 µM ([2]; mouse liver microsomes): 90.3 mL/min/kg
half-life at 1 µM ([2]; mouse liver microsomes): 0.459 h
CLint scaled at 1 µM ([2]; rat liver microsomes): 105 mL/min/kg
half-life at 1 µM ([2]; rat liver microsomes): 0.867 h
SMILES: Cc1ccc(C(=O)Nc2ccc(Oc3cc4cnn(C)c4cc3-c3cn[nH]c3)c(F)c2)c(=O)n1-c1ccc(F)cc1 [Merestinib, reference compound]

inhibition at 2 µM [3]: 97%
inhibition at 2 µM [4]: 93%
inhibition at 2 µM [5]: 95%
inhibition at 2 µM [6]: 97%
inhibition at 2 µM [7]: 100%
inhibition at 2 µM [8]: 97%
inhibition at 2 µM [9]: 97%
inhibition at 2 µM [10]: 100%
inhibition at 2 µM [11]: 90%
inhibition at 2 µM [12]: 100%
inhibition at 2 µM [13]: 96%
inhibition at 2 µM [14]: 100%
inhibition at 2 µM [15]: 93%
CLint scaled at 1 µM ([2]; Beagle, dog liver microsomes): 46.5 mL/min/kg
half-life at 1 µM ([2]; Beagle, dog liver microsomes): 1.24 h
CLint scaled at 1 µM ([2]; human liver microsomes): 6.03 mL/min/kg
half-life at 1 µM ([2]; human liver microsomes): 4.81 h
CLint scaled at 1 µM ([2]; mouse liver microsomes): 63.3 mL/min/kg
half-life at 1 µM ([2]; mouse liver microsomes): 0.653 h
CLint scaled at 1 µM ([2]; rat liver microsomes): 74.4 mL/min/kg
half-life at 1 µM ([2]; rat liver microsomes): 1.22 h
SMILES: COc1ccc(C(=O)Nc2ccc(Oc3cc4cnn(C)c4cc3-c3cn[nH]c3)c(F)c2)c(=O)n1-c1ccc(F)cc1 [Example 12, N-(3-fluoro-4-(1-methyl-6-(1H-pyrazol-4-yl)-1H-indazol-5-yloxy)phenyl)-1-(4-fluorophenyl)-6-methoxy-2-oxo-1,2-dihydropyridine-3-carboxamide]

— US11952364B2, “TRK inhibitors useful as anticancer drugs” (TYLIGAND BIOSCIENCE (SHANGHAI) LIMITED, priority 2018, dated 2024)
